Biological target: T1, PRKCB2 (PKC beta II) (Homo sapiens, UniProt P05771)
T1 construct: purchased Thermo Fisher Scientific (Life Technologies) SelectScreen
Assay: SelectScreen Z'LYTE
Format: biochemical
In short: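 NU5455 was profiled across the SelectScreen Broad panel of kinase activity and binding assays. Z'LYTE reactions such as CSF1R ran at apparent Km ATP, while the Adapta CAMK1 assay used ATP listed as 10. Values are given as percent.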

T1 sequence (P05771 1-673 isoform P05771-2): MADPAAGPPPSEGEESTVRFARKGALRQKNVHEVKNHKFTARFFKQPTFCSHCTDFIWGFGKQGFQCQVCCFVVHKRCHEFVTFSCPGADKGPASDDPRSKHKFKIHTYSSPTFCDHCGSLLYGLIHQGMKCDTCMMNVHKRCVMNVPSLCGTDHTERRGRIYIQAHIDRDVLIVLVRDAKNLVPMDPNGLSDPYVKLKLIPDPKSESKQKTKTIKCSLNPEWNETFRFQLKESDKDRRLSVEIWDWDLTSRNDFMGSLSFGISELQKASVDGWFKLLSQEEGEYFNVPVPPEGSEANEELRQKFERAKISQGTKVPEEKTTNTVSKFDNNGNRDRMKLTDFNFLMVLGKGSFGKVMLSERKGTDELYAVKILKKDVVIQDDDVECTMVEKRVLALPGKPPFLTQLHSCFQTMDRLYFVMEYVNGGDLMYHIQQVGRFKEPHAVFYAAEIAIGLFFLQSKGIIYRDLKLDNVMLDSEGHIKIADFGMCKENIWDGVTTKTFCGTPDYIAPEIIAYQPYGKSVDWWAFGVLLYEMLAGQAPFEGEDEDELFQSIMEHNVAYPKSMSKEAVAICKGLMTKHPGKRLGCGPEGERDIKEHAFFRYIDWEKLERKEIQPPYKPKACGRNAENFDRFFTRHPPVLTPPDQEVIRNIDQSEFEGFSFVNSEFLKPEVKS

CN(C(=O)CN1CCOCC1)c1ccc2sc3c(-c4cccc5c(=O)cc(N6CC7CCC(C6)O7)oc45)cccc3c2c1 [NU5455]
inhibition at 1 µM: -9.6%
